Source: patent US10538497B2, “Compounds as indoleamine 2,3-dioxygenase inhibitors” (Merck Sharp & Dohme Corp., priority 2015, dated 2020)

Experiments:
IDO1 [1] = target: T1, IDO1 (Homo sapiens (Human), UniProt P14902); test: IDO1 Cellular Assay in Frozen HEK293 Cells Transiently Transfected with Human IDO1; format: cell-based; conditions: HEK293 cells transiently transfected with human IDO1; read-out: IDO1 HEK293 Cell Assay, IC50
Description: IDO1 Cellular Assay in Frozen HEK293 Cells Transiently Transfected with Human IDO1
HEK293 cells were cultured in complete HEK293 culture medium (90% DMEM, 10% heat-inactivated fetal bovine serum). When reaching sub-confluent, the cells were trypsinized and neutralized with complete medium. […] Flag-IDO1 plasmid was added to the cell suspension at a concentration of 100 μg/mL. The cell-plasmid solutions were transferred to the OC-400 processing assembly (Maxcyte), 400 l/unit and the units were placed in a Maxcyte instrument to carry out flow electroporation for transfection. The cells were then transferred to a sterile 24-well cell culture plate to recover for 20-30 min at 37° C. in an incubator with 5% CO2.
Frozen HEK293/IDO1 and HEK293 WT cells were thawed and transferred into HEK293 assay medium (99% complete HEK293 culture medium, 1% Pen/Strep) with 20 mL medium/vial of cells. The cells were spun down at 250 g in a table top centrifuge for 5 min and suspended in same volume of HEK293 assay medium. […] Sterile L-tryptophan were added to the cells with final concentration of 300 μM.
HEK293/IDO1 and HEK293 WT cells were dispensed to the respective wells of 384-well assay plates containing the compounds. The plates were incubated for about 28-30 h at a 37° C., 5% CO2 incubator. […] The plates were centrifuged for 1 min at 200×g. The resulting fluorescence was measured in a Spectramax plate reader (Molecular Devices) with a 400 nm excitation filter and a 510 nm emission filter.

IDO1 [2] = target: T1, IDO1; test: IDO1 Cellular Assay in Hela Cells Stimulated with IFNγ; format: cell-based; conditions: Hela cells stimulated with IFNγ 100 ng/mL; read-out: IDO1 HELA Cell Assay, IC50
IDO1 [3] = target: T1, IDO1; test: IDO1 Enzyme Assay; conditions: read-out: IDO1 Enzyme Assay, IC50; HIS-tagged recombinant IDO1, 40 nM

T1 sequence (P14902 whole entry): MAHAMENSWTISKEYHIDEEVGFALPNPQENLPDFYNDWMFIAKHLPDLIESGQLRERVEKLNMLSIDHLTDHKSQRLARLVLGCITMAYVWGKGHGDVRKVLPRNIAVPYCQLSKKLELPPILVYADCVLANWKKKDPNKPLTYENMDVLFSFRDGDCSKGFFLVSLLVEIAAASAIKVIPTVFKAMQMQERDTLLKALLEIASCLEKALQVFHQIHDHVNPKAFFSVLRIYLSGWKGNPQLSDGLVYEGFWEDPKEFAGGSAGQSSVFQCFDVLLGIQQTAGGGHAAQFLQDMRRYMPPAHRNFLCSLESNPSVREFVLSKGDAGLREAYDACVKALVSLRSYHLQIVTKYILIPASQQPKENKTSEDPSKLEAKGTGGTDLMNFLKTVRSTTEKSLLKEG

SMILES	IC50 (IDO1 [1]) [nM]	IC50 (IDO1 [2]) [nM]	IC50 (IDO1 [3]) [nM]
CN1C(=O)NC[C@@H]1CSc1nonc1/C(=N/O)Nc1ccc(F)c(Br)c1 [Example 43, (R)—N-(3-bromo-4-fluorophenyl)-N′-hydroxy-4-(((3-methyl-2-oxoimidazolidin-4-yl)methyl)thio)-1,2,5-oxadiazole-3-carboximidamide]	78.5	118	53.3
NS(=O)(=O)NCCSc1nsnc1/C(=N/O)Nc1ccc(F)c(Br)c1 [Example 47, N-(3-bromo-4-fluorophenyl)-N′-hydroxy-4-((2-(sulfamoylamino)ethyl)thio)-1,2,5-thiadiazole-3-carboximidamide]	290	245	439
COC(=O)[C@@H](N)CSc1nonc1/C(=N/O)Nc1ccc(F)c(Br)c1 [Example 48, methyl S-{4-[N-(3-bromo-4-fluorophenyl)-N′-hydroxycarbamimidoyl]-1,2,5-oxadiazol-3-yl}-L-cisteinate]	226	648	170
CC(=O)NCCSc1nonc1/C(=N/O)Nc1ccc(F)c(C(F)(F)F)c1 [Example 49, N-{2-[(4-{N-[4-fluoro-3-(trifluoromethyl)phenyl]-N′-hydroxycarbamimidoyl}-1,2,5-oxadiazol-3-yl)sulfanyl]ethyl}acetamide]	31.7	11.9	65.3
OCCSc1nonc1/C(=N/O)Nc1ccc(F)c(C(F)(F)F)c1 [Example 50, N-[4-fluoro-3-(trifluoromethyl)phenyl]-N′-hydroxy-4-[(2-hydroxyethyl)sulfanyl]-1,2,5-oxadiazole-3-carboximidamide]	67.5	45.7	99.5
CC(=O)NCCSc1nonc1/C(=N/O)Nc1ccc(F)c(C)c1 [Example 51, N-[2-({4-[N-(4-fluoro-3-methylphenyl)-N′-hydroxycarbamimidoyl]-1,2,5-oxadiazol-3-yl}sulfanyl)ethyl]acetamide]	106	48.1	113
CC(=O)NCCSc1nonc1/C(=N/O)Nc1ccc(F)c(OC(F)(F)F)c1 [Example 52, N-{2-[(4-{N-[4-fluoro-3-(trifluoromethoxy)phenyl]-N′-hydroxycarbamimidoyl}-1,2,5-oxadiazol-3-yl)sulfanyl]ethyl}acetamide]	177	144	356
OCCCCCCSc1nonc1/C(=N/O)Nc1ccc(F)c(Br)c1 [Example 53, N-(3-bromo-4-fluorophenyl)-N′-hydroxy-4-[(6-hydroxyhexyl)sulfanyl]-1,2,5-oxadiazole-3-carboximidamide]	786	683	98.5
CC(C)C(O)CCSc1nonc1/C(=N/O)Nc1ccc(F)c(Br)c1 (stereo not drawn) [Example 54, N-(3-bromo-4-fluorophenyl)-N′-hydroxy-4-[(3-hydroxy-4-methylpentyl)sulfanyl]-1,2,5-oxadiazole-3-carboximidamide]	204	200	330
CCNc1c(NCCSc2nonc2/C(=N/O)Nc2ccc(F)c(Br)c2)c(=O)c1=O [Example 55, N-(3-bromo-4-fluorophenyl)-4-[(2-{[2-(ethylamino)-3,4-dioxocyclobut-1-en-1-yl]amino}ethyl)sulfanyl]-N′-hydroxy-1,2,5-oxadiazole-3-carboximidamide]	261	67.8	20.2
N=C(N)NCCSc1nonc1/C(=N/O)Nc1ccc(F)c(Br)c1 [Example 56, N-(3-bromo-4-fluorophenvl)-4-[(2-carbamimidamidoethyl)sulfanyl]-N′-hydroxy-1,2,5-oxadiazole-3-carboximidamide]	212	94.3	41.5
NC(CCSc1nonc1/C(=N/O)Nc1ccc(F)c(Br)c1)C(=O)O (stereo not drawn) [Example 57, S-{4-[N-(3-bromo-4-fluorophenyl)-N′-hydroxycarbamimidoyl]-1,2,5-oxadiazol-3-yl}homocysteine]	361	131	29.4
CC(=O)NCCSc1nonc1/C(=N/O)Nc1cc(Br)c(F)cc1F [Example 58, N-[2-({4-[N-(5-bromo-2,4-difluorophenyl)-N′-hydroxycarbamimidoyl]-1,2,5-oxadiazol-3-yl}sulfanyl)ethyl]acetamide]	290	154	136
CC(=O)NCCSc1nonc1/C(=N/O)Nc1cccc(Br)c1 [Example 59, N-[2-({4-[N-(3-bromophenyl)-N′-hydroxycarbamimidoyl]-1,2,5-oxadiazol-3-yl}sulfanyl)ethyl]acetamide]	20.6	22.4	23.2

The next lines start with the values.

IC50 (IDO1 [1]) [nM]	IC50 (IDO1 [2]) [nM]	IC50 (IDO1 [3]) [nM]	SMILES
176	153	36.5	CN/C(=C\[N+](=O)[O-])NCCSc1nonc1C(=NO)Nc1ccc(F)c(Br)c1 [Example 60, N-(3-bromo-4-fluorophenyl)-N′-hydroxy-4-[(2-{[(E)-1-(methylamino)-2-nitroethenyl]amino}ethyl)sulfanyl]-1,2,5-oxadiazole-3-carboximidamide]
171	77.5	94.3	O=C(CSc1nonc1/C(=N/O)Nc1ccc(F)c(Br)c1)Nc1ccccc1 [Example 61, 2-({4-[N-(3-bromo-4-fluorophenyI)-N′-hydroxycarbamimidoyl]-1,2,5-oxadiazol-3-yl}sulfanyl)-N-phenylacetamide]
74.5	52.6	59.4	CCc1cccc(N/C(=N\O)c2nonc2SCCNC(C)=O)c1 [Example 65, N-[2-({4-[N-(3-ethylphenyl)-N′-hydroxycarbamimidoyl]-1,2,5-oxadiazol-3-yl}sulfanyl)ethyl]acetamide]
67.7	92.3	28.3	O/N=C(\Nc1ccc(F)c(Br)c1)c1nonc1SC1CCNC1 (stereo not drawn) [Example 66, N-(3-bromo-4-fluorophenyl)-N′-hydroxy-4-(pyrrolidin-3-ylsulfanyl)-1,2,5-oxadiazole-3-carboximidamide]
17.7	14.5	39.3	N#CCSc1nonc1/C(=N/O)Nc1ccc(F)c(Br)c1 [Example 67, N-(3-bromo-4-fluorophenyl)-4-[(cyanomethyl)sulfanyl]-N′-hydroxy-1,2,5-oxadiazole-3-carboximidamide]
107	77.2	96.2	N#CC1(CSc2nonc2/C(=N/O)Nc2ccc(F)c(Br)c2)CC1 [Example 68, N-(3-bromo-4-fluorophenvl)-4-{[(1-cyanocyclopropyl)methyl]sulfanyl}-N′-hydroxy-1,2,5-oxadiazole-3-carboximidamide]
26.2	20.9	27.9	CNC(=O)CCSc1nonc1/C(=N/O)Nc1ccc(F)c(Br)c1 [Example 70, 3-({4-[N-(3-bromo-4-fluorophenyl)-N′-hydroxycarbamimidoyl]-1,2,5-oxadiazol-3-yl}sulfanyl)-N-methylpropanamide]
109	91.2	407	NS(=O)(=O)c1ccc(CCSc2nonc2/C(=N/O)Nc2ccc(F)c(Br)c2)cc1 [Example 71, N-(3-bromo-4-fluorophenyl)-N′-hydroxy-4-{[2-(4-sulfamoylphenyl)ethyl]sulfanyl}-1,2,5-oxadiazole-3-carboximidamide]
231	283	87.8	O/N=C(\Nc1ccc(F)c(Br)c1)c1nonc1SC1CCNCC1 [Example 72, N-(3-bromo-4-fluorophenyl)-N′-hydroxy-4-(piperidin-4-ylsulfanyl)-1,2,5-oxadiazole-3-carboximidamide]
376	106	27.2	Nc1c(NCCSc2nonc2/C(=N/O)Nc2ccc(F)c(Br)c2)c(=O)c1=O [Example 73, 4-({2-[(2-amino-3,4-dioxocyclobut-1-en-1-yl)amino]ethyl}sulfanyl)-N-(3-bromo-4-fluorophenyl)-N′-hydroxy-1,2,5-oxadiazole-3-carboximidamide]
579	388	503	O/N=C(\Nc1ccc(F)c(Br)c1)c1nonc1SCC(O)c1ccccc1 (stereo not drawn) [Example 74, N-(3-bromo-4-fluorophenyl)-N′-hydroxy-4-[(2-hydroxy-2-phenylethyl)sulfanyl]-1,2,5-oxadiazole-3-carboximidamide]
114	43.8	97.2	NS(=O)(=O)N1CCC(Sc2nonc2/C(=N/O)Nc2ccc(F)c(Br)c2)CC1 [Example 76, N-(3-bromo-4-fluorophenyl)-N′-hydroxy-4-[(1-sulfamoylpiperidin-4-yl)sulfanyl]-1,2,5-oxadiazole-3-carboximidamide]
